Patent publication US20210369680A1, “METHODS OF TREATING DISEASES AND DISORDERS RESULTING FROM BETA CORONAVIRUS INFECTION” (T3D Therapeutics, Inc., priority 2020, published 2021)

Test: FDG-PET relative cerebral metabolic rate for glucose, clinical study
Format: in vivo, human
Details: for R CMRgl change (EOT-BL) relative to average Whole Brain: combined dose groups
Description: FDG-PET Data from Clinical Study with Compound of Example 11
FDG-PET scans were obtained at three clinical sites.
Increases and decreases in relative regional glucose metabolism (A R CMRgl (EOT-BL)) were observed over the treatment period.

**Q.** For `CCc1oc(-c2ccc(OC)cc2)nc1CCOc1ccc2c(c1)CC[C@H]2CC(=O)[O-].[Na+]` [Example 11, Sodium (S)-2-(5-(2-(5-ethyl-2-(4-methoxyphenyl)oxazol-4-yl)ethoxy)-2,3-dihydro-1H-inden-1-yl)acetate], which “spatial extent of ROSDs with positive R CMRgl change (p<0.005)” value (10 mg) is on record?
**A.** 70 voxels

**Q.** And the “spatial extent of ROSDs with positive R CMRgl change (p<0.005)” value (90 mg)?
**A.** 2136 voxels

**Q.** And the “R CMRgl change (EOT-BL) relative to average Whole Brain” value (Cingulum Ant L)?
**A.** 0.03 ± 0.04

**Q.** What about the “R CMRgl change (EOT-BL) relative to average Whole Brain” value (Cingulum Ant R) of the same compound?
**A.** 0.02 ± 0.05

**Q.** What about the “R CMRgl change (EOT-BL) relative to average Whole Brain” value (Cingulum Ant intersection L) of the same compound?
**A.** 0.04 ± 0.05

**Q.** And the “R CMRgl change (EOT-BL) relative to average Whole Brain” value (Cingulum Ant intersection R)?
**A.** 0.03 ± 0.04

**Q.** What about the “R CMRgl change (EOT-BL) relative to average Whole Brain” value (Insula L) of the same compound?
**A.** 0.02 ± 0.03

**Q.** What about the “R CMRgl change (EOT-BL) relative to average Whole Brain” value (Insula R) of the same compound?
**A.** 0.02 ± 0.04

**Q.** And the “R CMRgl change (EOT-BL) relative to average Whole Brain” value (Insula intersection L)?
**A.** 0.03 ± 0.03

**Q.** What about the “R CMRgl change (EOT-BL) relative to average Whole Brain” value (Insula intersection R) of the same compound?
**A.** 0.03 ± 0.04

**Q.** And the “R CMRgl change (EOT-BL) relative to average Whole Brain” value (Orbital front intersection L)?
**A.** 0.03 ± 0.04

**Q.** What about the “R CMRgl change (EOT-BL) relative to average Whole Brain” value (Orbital front intersection R) of the same compound?
**A.** 0.03 ± 0.03

**Q.** And the “R CMRgl change (EOT-BL) relative to average Whole Brain” value (Putamen L)?
**A.** 0.05 ± 0.07

**Q.** What about the “R CMRgl change (EOT-BL) relative to average Whole Brain” value (Putamen R) of the same compound?
**A.** 0.05 ± 0.06

**Q.** What about the “R CMRgl change (EOT-BL) relative to average Whole Brain” value (Putamen intersection L) of the same compound?
**A.** 0.06 ± 0.06

**Q.** And the “R CMRgl change (EOT-BL) relative to average Whole Brain” value (Putamen intersection R)?
**A.** 0.06 ± 0.06
